Laboratory results published in patent publication US11690377B2, “Herbicidal composition and method of use thereof” (Belchim Crop Protection NV, priority 2017, dated 2023).

What was measured:
Assay type in all cases: in vivo
[1] = tested on: AMATA - Common Waterhemp (Amaranthus rudis); assay: Field trial, post-emergence weed control in corn, AMATA
Method: (§1) Field trials were conducted in Tennessee and Illinois (USA). The crop and weed species had been seeded and/or drill sown. In the case of post-emergence evaluation, seeded and/or drill sown plants were grown to a certain growth stage before application of the active ingredients (alone or as a mixture). In the case of pre-emergence evaluation, the application of the active ingredients was carried out after the plants were seeded and/or drilled sown. The trial was in the form of a randomized complete block. The percentage of weed control was assessed in several different instances after treatment until a maximum of 42 days after treatment, by comparison with untreated control plots by visual scoring. The herbicidal action was assessed qualitatively and quantitatively. To quantify the synergic effect resulting from the combination of mesotrione and pyridate, the inventors used the methodology described by Colby, in which a synergistic effect exists when the activity of a composition comprising both active compounds is greater than the sum of the activities of the two active compounds applied individually. The expected activity for the combination of mesotrione and pyridate can be calculated by the following so-called “Colby equation” (see S. R. Colby, “Calculating Synergistic and Antagonistic Responses of Herbicide Combinations”, Weeds 1967, 15, 20-22). Pa+b=(Pa+Pb)−(Pa*Pb/100) Wherein • Pa+b is the expected percent inhibition of weed growth by the combination of mesotrione and pyridate; • Pa is the percent inhibition of weed growth induced by mesotrione; • Pb is the percent inhibition of weed growth induced by pyridate. If the actual percent inhibition of weed growth induced by the combination of mesotrione and pyridate is greater than the expected percent inhibition (Pa+b) calculated from the Colby equation, then the activity of the combination is synergistic. The below Tables represent the herbicidal performance of the composition according to the invention, and also the herbicidal performance of the active ingredients alone, in controlling specific weeds. The expected percent inhibition of weed growth (derived from the Colby's equation) and the actual (observed) percent inhibition of weed growth is also presented in order to conclude on the synergistic effect of the combination according to the invention. Post-Emergence Herbicidal Performance of the Composition According to the Invention Against Broadleaf Weed in Corn.

[2] = tested on: IPOHE - Ivyleaf Morningglory (Ipomoea headrace); assay: Field trial, pre-emergence weed control in corn, IPOHE; settings: mesotrione 3.85, pyridate 6.84, combination 3.85 + 6.84 (rate unit not given)
Method: (§2) Field trials were conducted in Tennessee and Illinois (USA). The crop and weed species had been seeded and/or drill sown. In the case of post-emergence evaluation, seeded and/or drill sown plants were grown to a certain growth stage before application of the active ingredients (alone or as a mixture). In the case of pre-emergence evaluation, the application of the active ingredients was carried out after the plants were seeded and/or drilled sown. The trial was in the form of a randomized complete block. The percentage of weed control was assessed in several different instances after treatment until a maximum of 42 days after treatment, by comparison with untreated control plots by visual scoring. The herbicidal action was assessed qualitatively and quantitatively. To quantify the synergic effect resulting from the combination of mesotrione and pyridate, the inventors used the methodology described by Colby, in which a synergistic effect exists when the activity of a composition comprising both active compounds is greater than the sum of the activities of the two active compounds applied individually. The expected activity for the combination of mesotrione and pyridate can be calculated by the following so-called “Colby equation” (see S. R. Colby, “Calculating Synergistic and Antagonistic Responses of Herbicide Combinations”, Weeds 1967, 15, 20-22). Pa+b=(Pa+Pb)−(Pa*Pb/100) Wherein • Pa+b is the expected percent inhibition of weed growth by the combination of mesotrione and pyridate; • Pa is the percent inhibition of weed growth induced by mesotrione; • Pb is the percent inhibition of weed growth induced by pyridate. If the actual percent inhibition of weed growth induced by the combination of mesotrione and pyridate is greater than the expected percent inhibition (Pa+b) calculated from the Colby equation, then the activity of the combination is synergistic. The below Tables represent the herbicidal performance of the composition according to the invention, and also the herbicidal performance of the active ingredients alone, in controlling specific weeds. The expected percent inhibition of weed growth (derived from the Colby's equation) and the actual (observed) percent inhibition of weed growth is also presented in order to conclude on the synergistic effect of the combination according to the invention. Pre-Emergence Herbicidal Performance of the Composition According to the Invention Against Broadleaf Weed in Corn.

[3] = tested on: SETVI - Green foxtail (Setaria viridis); assay: Field trial, post-emergence weed control in corn, SETVI
Method: Field trials were conducted in Tennessee and Illinois (USA). The crop and weed species had been seeded and/or drill sown. In the case of post-emergence evaluation, seeded and/or drill sown plants were grown to a certain growth stage before application of the active ingredients (alone or as a mixture). In the case of pre-emergence evaluation, the application of the active ingredients was carried out after the plants were seeded and/or drilled sown. The trial was in the form of a randomized complete block. The percentage of weed control was assessed in several different instances after treatment until a maximum of 42 days after treatment, by comparison with untreated control plots by visual scoring. The herbicidal action was assessed qualitatively and quantitatively. To quantify the synergic effect resulting from the combination of mesotrione and pyridate, the inventors used the methodology described by Colby, in which a synergistic effect exists when the activity of a composition comprising both active compounds is greater than the sum of the activities of the two active compounds applied individually. The expected activity for the combination of mesotrione and pyridate can be calculated by the following so-called “Colby equation” (see S. R. Colby, “Calculating Synergistic and Antagonistic Responses of Herbicide Combinations”, Weeds 1967, 15, 20-22). Pa+b=(Pa+Pb)−(Pa*Pb/100) Wherein • Pa+b is the expected percent inhibition of weed growth by the combination of mesotrione and pyridate; • Pa is the percent inhibition of weed growth induced by mesotrione; • Pb is the percent inhibition of weed growth induced by pyridate. If the actual percent inhibition of weed growth induced by the combination of mesotrione and pyridate is greater than the expected percent inhibition (Pa+b) calculated from the Colby equation, then the activity of the combination is synergistic. The below Tables represent the herbicidal performance of the composition according to the invention, and also the herbicidal performance of the active ingredients alone, in controlling specific weeds. The expected percent inhibition of weed growth (derived from the Colby's equation) and the actual (observed) percent inhibition of weed growth is also presented in order to conclude on the synergistic effect of the combination according to the invention. […]

[4] = tested on: IPOHE - Ivyleaf Morningglory (Ipomoea headrace); assay: Field trial, post-emergence weed control in corn, IPOHE
Method: as §1

[5] = tested on: AMAPA - Palmer Pigweed (Amaranthus palmeri); assay: Field trial, post-emergence weed control in corn, AMAPA; settings: mesotrione 3 oz/A, pyridate 6.84 oz/A, combination 3 + 6.84 oz/A
Method: as §1

[6] = tested on: ELEIN - Goosegrass (Eleusine indica); assay: Field trial, pre-emergence weed control in corn, ELEIN; settings: mesotrione 3.85 oz/A, pyridate 6.84 oz/A, combination 3.85 + 6.84 oz/A
Method: as §2

[7] = tested on: AMAPA - Palmer Pigweed (Amaranthus palmeri); assay: Field trial, pre-emergence weed control in corn, AMAPA; settings: mesotrione 3.85 oz/A, pyridate 6.84 oz/A, combination 3.85 + 6.84 oz/A
Method: as §2

[8] = 7 days after treatment, mesotrione 2 oz./A, pyridate 2 oz./A, combination 2 + 2 oz./A
[9] = 7 days after treatment, mesotrione 3 oz./A, pyridate 3 oz./A, combination 3 + 3 oz./A
[10] = 7 days after treatment, mesotrione 3 oz./A, pyridate 6.84 oz./A, combination 3 + 6.84 oz./A
[11] = 14 days after treatment, mesotrione 2 oz./A, pyridate 2 oz./A, combination 2 + 2 oz./A
[12] = 14 days after treatment, mesotrione 3 oz./A, pyridate 3 oz./A, combination 3 + 3 oz./A
[13] = 14 days after treatment, mesotrione 3 oz./A, pyridate 6.84 oz./A, combination 3 + 6.84 oz./A
[14] = 28 days after treatment, mesotrione 2 oz./A, pyridate 2 oz./A, combination 2 + 2 oz./A
[15] = 28 days after treatment, mesotrione 3 oz./A, pyridate 3 oz./A, combination 3 + 3 oz./A
[16] = 28 days after treatment, mesotrione 3 oz./A, pyridate 6.84 oz./A, combination 3 + 6.84 oz./A
[17] = 14 days after treatment, mesotrione 2 oz/A, pyridate 2 oz/A, combination 2 + 2 oz/A
[18] = 14 days after treatment, mesotrione 3 oz/A, pyridate 3 oz/A, combination 3 + 3 oz/A
[19] = 21 days after treatment, mesotrione 2 oz/A, pyridate 2 oz/A, combination 2 + 2 oz/A
[20] = 21 days after treatment, mesotrione 3 oz/A, pyridate 3 oz/A, combination 3 + 3 oz/A
[21] = 38 days after treatment, mesotrione 2 oz/A, pyridate 2 oz/A, combination 2 + 2 oz/A
[22] = 38 days after treatment, mesotrione 3 oz/A, pyridate 3 oz/A, combination 3 + 3 oz/A
[23] = 8 days after treatment, mesotrione 2 oz/A, pyridate 2 oz/A, combination 2 + 2 oz/A
[24] = 8 days after treatment, mesotrione 3 oz/A, pyridate 3 oz/A, combination 3 + 3 oz/A
[25] = 8 days after treatment, mesotrione 3 oz/A, pyridate 6.84 oz/A, combination 3 + 6.84 oz/A
[26] = 16 days after treatment, mesotrione 2 oz/A, pyridate 2 oz/A, combination 2 + 2 oz/A
[27] = 16 days after treatment, mesotrione 3 oz/A, pyridate 3 oz/A, combination 3 + 3 oz/A
[28] = 16 days after treatment, mesotrione 3 oz/A, pyridate 6.84 oz/A, combination 3 + 6.84 oz/A
[29] = 21 days after treatment, mesotrione 3 oz/A, pyridate 6.84 oz/A, combination 3 + 6.84 oz/A

| Compound | Mean percentage of weed control (observed) [1, 8] [%] | Mean percentage of weed control (observed) [1, 9] [%] | Mean percentage of weed control (observed) [1, 10] [%] | Mean percentage of weed control (observed) [1, 11] [%] | Mean percentage of weed control (observed) [1, 12] [%] | Mean percentage of weed control (observed) [1, 13] [%] | Mean percentage of weed control (observed) [1, 14] [%] | Mean percentage of weed control (observed) [1, 15] [%] | Mean percentage of weed control (observed) [1, 16] [%] | Mean percentage of weed control (observed) ([2]; 7 days after treatment) [%] | Mean percentage of weed control (observed) ([2]; 14 days after treatment) [%] | Mean percentage of weed control (observed) ([2]; 28 days after treatment) [%] | Mean percentage of weed control (observed) ([2]; 42 days after treatment) [%] | Mean percentage of weed control (observed) [3, 17] [%] | Mean percentage of weed control (observed) [3, 18] [%] | Mean percentage of weed control (observed) [3, 19] [%] | Mean percentage of weed control (observed) [3, 20] [%] | Mean percentage of weed control (observed) [3, 21] [%] | Mean percentage of weed control (observed) [3, 22] [%] | Mean percentage of weed control (observed) [4, 23] [%] | further results |
| --- | --- | --- | --- | --- | --- | --- | --- | --- | --- | --- | --- | --- | --- | --- | --- | --- | --- | --- | --- | --- | --- |
| CS(=O)(=O)c1ccc(C(=O)C2C(=O)CCCC2=O)c([N+](=O)[O-])c1 [mesotrione, Mesotrione] | 73 | 73 | 68 | 75 | 73 | 80 | 73 | 68 | 85 | 62 | 64 | 40 | 34 | 48 | 58 | 50 | 60 | 50 | 60 | 43 | Mean percentage of weed control (observed) [4, 24]: 68%; Mean percentage of weed control (observed) [4, 25]: 65%; Mean percentage of weed control (observed) [4, 26]: 35%; Mean percentage of weed control (observed) [4, 27]: 63%; Mean percentage of weed control (observed) [4, 28]: 78%; Mean percentage of weed control (observed) [4, 19]: 38%; Mean percentage of weed control (observed) [4, 20]: 60%; Mean percentage of weed control (observed) [4, 29]: 75%; Mean percentage of weed control (observed) ([5]; 8 days after treatment): 53%; Mean percentage of weed control (observed) ([5]; 16 days after treatment): 55%; Mean percentage of weed control (observed) ([5]; 21 days after treatment): 55%; Mean percentage of weed control (observed) ([6]; 7 days after treatment): 65%; Mean percentage of weed control (observed) ([6]; 14 days after treatment): 78%; Mean percentage of weed control (observed) ([7]; 7 days after treatment): 62%; Mean percentage of weed control (observed) ([7]; 14 days after treatment): 64%; Mean percentage of weed control (observed) ([7]; 28 days after treatment): 40%; Mean percentage of weed control (observed) ([7]; 42 days after treatment): 34% |
| CCCCCCCCSC(=O)Oc1cc(Cl)nnc1-c1ccccc1 [pyridate, Pyridate] | 0 | 0 | 10 | 0 | 0 | 12 | 0 | 0 | 6 | 37 | 42 | 20 | 20 | 10 | 10 | 10 | 10 | 10 | 10 | 28 | Mean percentage of weed control (observed) [4, 24]: 40%; Mean percentage of weed control (observed) [4, 25]: 10%; Mean percentage of weed control (observed) [4, 26]: 18%; Mean percentage of weed control (observed) [4, 27]: 10%; Mean percentage of weed control (observed) [4, 28]: 23%; Mean percentage of weed control (observed) [4, 19]: 18%; Mean percentage of weed control (observed) [4, 20]: 10%; Mean percentage of weed control (observed) [4, 29]: 23%; Mean percentage of weed control (observed) ([5]; 8 days after treatment): 23%; Mean percentage of weed control (observed) ([5]; 16 days after treatment): 33%; Mean percentage of weed control (observed) ([5]; 21 days after treatment): 33%; Mean percentage of weed control (observed) ([6]; 7 days after treatment): 37%; Mean percentage of weed control (observed) ([6]; 14 days after treatment): 37%; Mean percentage of weed control (observed) ([7]; 7 days after treatment): 37%; Mean percentage of weed control (observed) ([7]; 14 days after treatment): 42%; Mean percentage of weed control (observed) ([7]; 28 days after treatment): 20%; Mean percentage of weed control (observed) ([7]; 42 days after treatment): 20% |
